# Earlier results, collected in PMC10323144, “Garbage in, garbage out: how reliable training data improved a virtual screening approach against SARS-CoV-2 MPro” (Frontiers in Pharmacology, 2023).
# Square brackets hold non-standard residues; d marks the D form. Peptide text beside a SMILES is read from it. * marks the point of attachment. Nle = CCCC[CH](N)C(=O)O; Cbz = O=C(OCc1ccccc1)*
# System: MPro
# Settings: compiled from peer-reviewed sources (287 compounds) ref the 18 original articles; cited from earlier work
row,SMILES,Class (MPro activity class)
1,O=c1c(O)c(-c2cc(O)c(O)c(O)c2)oc2cc(O)cc(O)c12 [Myricetin],1 (Compounds with IC50 < 10 µM or with a percentage of enzyme inhibition >50% at 10 µM were labelled as ACTIVE)
2,CC1CN(Cc2cccc(Cl)c2)CCN1C(=O)CCl (stereo not shown) [MED-COV-4280ac29-13],1 (Compounds with IC50 < 10 µM or with a percentage of enzyme inhibition >50% at 10 µM were labelled as ACTIVE)
3,Cc1cc(Cn2nnc3c(-c4ccco4)nc(N)nc32)ccc1N [VIPADENANT],"0 (compounds with IC50 > 20 μM, percentage inhibition <80% at 20 µM or 50 μM, or percentage enzyme inhibition <50% at 10 µM were labelled as INACTIVE)"
4,O=C(Oc1cncc(Cl)c1)c1cccc2c1CCN2 [GRL-172],1 (Compounds with IC50 < 10 µM or with a percentage of enzyme inhibition >50% at 10 µM were labelled as ACTIVE)
5,COc1ccc(O)c(C=NN2C(=O)c3ccccc3NC2c2cc(OC)ccc2O)c1 (stereo not shown) [QZ4],1 (Compounds with IC50 < 10 µM or with a percentage of enzyme inhibition >50% at 10 µM were labelled as ACTIVE)
6,Nc1cccc(C2CN(C(=O)CCl)Cc3ccccc32)c1 (stereo not shown) [NIR-THE-c331be7a-1],1 (Compounds with IC50 < 10 µM or with a percentage of enzyme inhibition >50% at 10 µM were labelled as ACTIVE)
7,CCC(C)C1OC2(CCC1C)CC1CC(CC=C(C)C(OC3CC(OC)C(OC4CC(OC)C(O)C(C)O4)C(C)O3)C(C)C=CC=C3COC4C(O)C(C)=CC(C(=O)O1)C34O)O2 (stereo not shown) [Ivermectin],"0 (compounds with IC50 > 20 μM, percentage inhibition <80% at 20 µM or 50 μM, or percentage enzyme inhibition <50% at 10 µM were labelled as INACTIVE)"
8,O=c1c(O)c(-c2ccc(O)cc2)oc2c(O)c(O)cc(O)c12 [Herbacetin],"0 (compounds with IC50 > 20 μM, percentage inhibition <80% at 20 µM or 50 μM, or percentage enzyme inhibition <50% at 10 µM were labelled as INACTIVE)"
9,O=C(CCl)N1CCN(S(=O)(=O)C2=CC[SH]=C2)CC1 [MAK-UNK-d4768348-1],1 (Compounds with IC50 < 10 µM or with a percentage of enzyme inhibition >50% at 10 µM were labelled as ACTIVE)
10,Cc1c(-c2ccnn2C)cc(C(=O)NCc2ccc(S(C)(=O)=O)cn2)c(=O)n1-c1cccc(C(F)(F)F)c1 [Alvestat],"0 (compounds with IC50 > 20 μM, percentage inhibition <80% at 20 µM or 50 μM, or percentage enzyme inhibition <50% at 10 µM were labelled as INACTIVE)"
11,CC(C)(C)OC(=O)N[C@H]1CCCCC/C=C\[C@@H]2C[C@@]2(C(=O)NS(=O)(=O)C2CC2)NC(=O)[C@@H]2C[C@@H](OC(=O)N3Cc4cccc(F)c4C3)CN2C1=O [Danoprevir],"0 (compounds with IC50 > 20 μM, percentage inhibition <80% at 20 µM or 50 μM, or percentage enzyme inhibition <50% at 10 µM were labelled as INACTIVE)"
12,Cc1cc(Nc2cc(CN3CCOCC3)c3nc(C)c(Cc4ccc(Cl)cc4F)n3n2)n[nH]1 [GANDOTINIB],"0 (compounds with IC50 > 20 μM, percentage inhibition <80% at 20 µM or 50 μM, or percentage enzyme inhibition <50% at 10 µM were labelled as INACTIVE)"
13,CCCCC(C=O)NC(=O)C(CC(C)C)NC(=O)C(CC(C)C)NC(C)=O (stereo not drawn) [Calpain inhibitor I] (Ac-Leu-Leu-[Nle]-aldehyde; configuration not given here),1 (Compounds with IC50 < 10 µM or with a percentage of enzyme inhibition >50% at 10 µM were labelled as ACTIVE)
14,CC(C)CC(NC(=O)OCc1ccccc1)C(=O)NC(CC(C)C)C(=O)NC(CC1CCNC1=O)C(=O)C(=O)NC1CC1 (stereo not shown) [UAWJ248],1 (Compounds with IC50 < 10 µM or with a percentage of enzyme inhibition >50% at 10 µM were labelled as ACTIVE)
15,O=C(C=Cc1ccc(O)c(O)c1)OC1CC(O)(C(=O)O)CC(OC(=O)C=Cc2ccc(O)c(O)c2)C1O (stereo not shown) [Isochlorogenic acid A],"0 (compounds with IC50 > 20 μM, percentage inhibition <80% at 20 µM or 50 μM, or percentage enzyme inhibition <50% at 10 µM were labelled as INACTIVE)"
16,O=C(O)C(S)=Cc1c[nH]c2ccc(F)cc12 [PD151746],"0 (compounds with IC50 > 20 μM, percentage inhibition <80% at 20 µM or 50 μM, or percentage enzyme inhibition <50% at 10 µM were labelled as INACTIVE)"
17,CC(C)(F)C[C@H](N[C@@H](c1ccc(-c2ccc(S(C)(=O)=O)cc2)cc1)C(F)(F)F)C(=O)NC1(C#N)CC1 [Odanacatib],"0 (compounds with IC50 > 20 μM, percentage inhibition <80% at 20 µM or 50 μM, or percentage enzyme inhibition <50% at 10 µM were labelled as INACTIVE)"
18,NC[C@H]1O[C@H](O[C@H]2[C@H](O[C@@H]3O[C@H](CO)[C@@H](O)[C@H]3O)[C@@H](O)[C@H](N)C[C@@H]2N)[C@H](N)[C@@H](O)[C@@H]1O [Ribostamycin],"0 (compounds with IC50 > 20 μM, percentage inhibition <80% at 20 µM or 50 μM, or percentage enzyme inhibition <50% at 10 µM were labelled as INACTIVE)"
19,CC1C=CC=CC=CC=CC=CC=CC=CC(OC2OC(C)C(O)C(N)C2O)CC(O)C(C(=O)O)C(O)CC(=O)CC(O)CC(O)CC(O)CC(=O)CCCC(=O)CC(=O)OC1C(C)CC(C)C(O)CC(=O)c1ccc(N)cc1 (stereo not shown) [Candicidin],"0 (compounds with IC50 > 20 μM, percentage inhibition <80% at 20 µM or 50 μM, or percentage enzyme inhibition <50% at 10 µM were labelled as INACTIVE)"
20,COCc1cc(Cl)cc(CN2CCN(C(=O)CCl)CC2)c1 [MED-COV-4280ac29-33],1 (Compounds with IC50 < 10 µM or with a percentage of enzyme inhibition >50% at 10 µM were labelled as ACTIVE)
21,CC(C)C(NC(=O)OCc1ccccc1)C(=O)NC(C=O)Cc1ccccc1 (stereo not drawn) [Calpain inhibitor III] (Cbz-Val-Phe-aldehyde; configuration not given here),"0 (compounds with IC50 > 20 μM, percentage inhibition <80% at 20 µM or 50 μM, or percentage enzyme inhibition <50% at 10 µM were labelled as INACTIVE)"
22,CCOC(=O)c1ccc(OC(=O)CCCCCNC(=N)N)cc1 [Gabexate],"0 (compounds with IC50 > 20 μM, percentage inhibition <80% at 20 µM or 50 μM, or percentage enzyme inhibition <50% at 10 µM were labelled as INACTIVE)"
23,O=C(OCC(O)CO)c1ccccc1Nc1ccnc2cc(Cl)ccc12 (stereo not shown) [GLAFENINE],"0 (compounds with IC50 > 20 μM, percentage inhibition <80% at 20 µM or 50 μM, or percentage enzyme inhibition <50% at 10 µM were labelled as INACTIVE)"
24,"O=c1cc(-c2ccccc2)oc2ccc(O)c(O)c12 [5,6-Dihydroxyflavone]","0 (compounds with IC50 > 20 μM, percentage inhibition <80% at 20 µM or 50 μM, or percentage enzyme inhibition <50% at 10 µM were labelled as INACTIVE)"
25,O=C(CCl)Nc1nc2c(S(=O)(=O)NCCc3ccccc3)cccc2s1 [DUN-NEW-f8ce3686-23],1 (Compounds with IC50 < 10 µM or with a percentage of enzyme inhibition >50% at 10 µM were labelled as ACTIVE)
26,CC(C)(C)NC(=O)C(c1cccnc1)N(C(=O)c1ccco1)c1ccc(C(C)(C)C)cc1 (stereo not shown) [ALP-POS-c59291d4-6],1 (Compounds with IC50 < 10 µM or with a percentage of enzyme inhibition >50% at 10 µM were labelled as ACTIVE)
27,C[C@@H]1O[C@@H](OC[C@H]2O[C@@H](OCCc3ccc(O)c(O)c3)[C@H](O)[C@@H](O)[C@@H]2OC(=O)/C=C/c2ccc(O)c(O)c2)[C@H](O)[C@H](O)[C@H]1O [Forsythoside A],1 (Compounds with IC50 < 10 µM or with a percentage of enzyme inhibition >50% at 10 µM were labelled as ACTIVE)
28,O=C(CCl)N1CCN(C(c2ccccc2)C2CCCCC2)CC1 (stereo not shown) [GIA-UNK-20b63697-6],1 (Compounds with IC50 < 10 µM or with a percentage of enzyme inhibition >50% at 10 µM were labelled as ACTIVE)
